Measurements: US11311522B1 (Cavion, Inc., priority 2018, dated 2022)

Key:
[1] = 7-day dose-range-finding toxicology in female rats
[2] = tested on: patients with essential tremor; experiment: T-CALM: adverse events, discontinuations, ECG; type: in vivo, human
Protocol: T-CALM employed the following dose titration scheme: Week 1 at 4 mg BID (8 mg/day), Week 2 at 8 mg BID (16 mg/day) and Weeks 3 & 4 at 10 mg BID (20 mg/day). […] Adverse Events were coded using MedDRA V20.0. Only treatment emergent adverse events with an onset date and time after the initiation of study drug until 30 days after discontinuation of drug were reported. For subjects who experience the same coded event more than once, a single event was presented. Adverse events were attributed to a study week based on the onset date, i.e. events that started on or after Visit 1 and prior to Visit 2 were classified as Study Week 1.
Electrocardiogram results were calculated as the average of the triplicate records at each time point. Baseline was defined as the mean of the triplicate values obtained pre-dose at Day 1. If this value was not available, the mean of the triplicate records obtained at screening were used.
Adverse events are characterized by maximum severity, drug-related adverse events, serious adverse events and adverse events leading to discontinuation of study.
Safety procedures involved collection of all TEAEs (treatment-emergent adverse events) coded into the Medical Dictionary for Regulatory Activities (MedDRA) version 20. Adverse events were classified by maximum severity, drug-related adverse events, serious adverse events, and adverse events leading to patient discontinuation.

[3] = biological target: cannabinoid 2 receptor (CB2) (Homo sapiens, UniProt P34972); experiment: Cannabinoid 2 receptor binding
[4] = doses up to 20 μM
[5] = Crossover bioavailability study: adverse events; type: in vivo, human; settings: Any Treatment (Original IR, MR1 or MR2), single 8 mg doses; subjects n (%), N = 15
[6] = tested on: T1, major CYP isoforms (CYP1A2, CYP3A4, CYP2C8, CYP2C9, CYP2C19, CYP2D6, CYP2B6); experiment: CYP inhibition in human liver microsomes; type: in vitro ADME; settings: human liver microsomes; human microsomes
T1 construct: other: human liver microsomes; other: human microsomes

[7] = tested on: T2, CYP3A4, CYP2C8, CYP2C9, CYP2D6, CYP1A2, CYP2C19, CYP2B6; experiment: CYP inhibition in human liver microsomes; type: in vitro ADME; settings: human, human liver microsomes
T2 construct: other: human liver microsomes; other: human microsomes

cannabinoid 2 receptor (CB2), sequence (P34972 whole entry, species assumed): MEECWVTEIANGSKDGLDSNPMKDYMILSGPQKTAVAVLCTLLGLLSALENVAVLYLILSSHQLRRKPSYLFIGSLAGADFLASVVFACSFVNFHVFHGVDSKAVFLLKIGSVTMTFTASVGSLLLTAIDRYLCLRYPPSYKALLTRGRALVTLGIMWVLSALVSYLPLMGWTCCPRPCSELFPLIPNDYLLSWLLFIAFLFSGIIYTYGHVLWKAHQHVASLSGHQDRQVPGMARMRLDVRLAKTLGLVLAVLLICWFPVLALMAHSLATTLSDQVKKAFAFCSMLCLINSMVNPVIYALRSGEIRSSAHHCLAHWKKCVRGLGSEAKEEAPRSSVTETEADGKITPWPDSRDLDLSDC

## CC(C)c1ccc(CC(=O)N[C@H](C)c2ccc(OCC(F)(F)F)cn2)cc1 [CX-8998]
[1]; Sprague-Dawley rat, 7-day exploratory toxicity, oral gavage
  NOEL: 500 mg/kg/day
[1]; Sprague-Dawley rat, 10, 100, or 500 mg/kg/day oral gavage for 7 days
  findings indicative of dose-limiting toxicity: No findings
[2]; N = 48
  Discontinuation due to Nervous System Disorders, subjects n (%): 4 (8%)
  Discontinuation due to Psychiatric Disorders, subjects n (%): 4 (8%)
  Dosage reduced Due to adverse event, subjects n (%): 3 (6%)
  Dosage reduced during study, subjects n (%): 4 (8%)
  Subjects with at least 1 event leading to discontinuation, n (%): 8 (17%)
[2]; N = 48, subject had inadequate drug supply at Visit 4
  Dosage reduced Due to other reasons, subjects n (%): 1 (2%)^3
[2]; Safety Analysis Set, n = 48
  TEAE Abnormal dreams, subjects n (%): 2 (4%)
  TEAE Disturbance in attention, subjects n (%): 2 (4%)
  TEAE Dizziness, subjects n (%): 10 (21%)
  TEAE Dry mouth, subjects n (%): 2 (4%)
  TEAE Dysgeusia, subjects n (%): 2 (4%)
  TEAE Ear and Labyrinth Disorders (system organ class), subjects n (%): 2 (4%)
  TEAE Euphoric mood, subjects n (%): 3 (6%)
  TEAE Gastrointestinal Disorders (system organ class), subjects n (%): 9 (19%)
  TEAE Hallucination, subjects n (%): 2 (4%)
  TEAE Headache, subjects n (%): 4 (8%)
  TEAE Hypesthesia, subjects n (%): 0
  TEAE Infections and Infestations (system organ class), subjects n (%): 4 (8%)
  TEAE Insomnia, subjects n (%): 3 (6%)
  TEAE Nausea, subjects n (%): 1 (2%)
  TEAE Nervous System Disorders (system organ class), subjects n (%): 20 (42%)
  TEAE Paraesthesia, subjects n (%): 2 (4%)
  TEAE Somnolence, subjects n (%): 1 (2%)
  TEAE Tinnitus, subjects n (%): 2 (4%)
  TEAE Urinary Tract Infection, subjects n (%): 2 (4%)
  TEAE Vomiting, subjects n (%): 0
[2]; Safety Analysis Set, n = 48, titrated up to 10 mg BID, 4 weeks
  Subjects with at least 1 treatment-emergent adverse event, n (%): 28 (58%)
[2]; Subject 26-001, Study Day 25, from 10 mg BID to 8 mg BID, Completed study
  Adverse Event (MedDRA Preferred Term) leading to dosage reduction: Anxiety
[2]; Subject 31-023, Study Day 8, from 8 mg BID to 4 mg BID, Withdrawn (Day 8), term wraps over r24-r26: Electrocardiogram T-wave abnormal
  Adverse Event (MedDRA Preferred Term) leading to dosage reduction: Electrocardio-
[2]; Subject 33-004, Study Day 8, from 4 mg BID to 2 mg BID, Withdrawn (Day 45) Lost to follow-up
  Adverse Event (MedDRA Preferred Term) leading to dosage reduction: Headache
[2]; TEAE, n = 48
  Abnormal dreams: 2 (4%) n (%)
  Disturbance in attention: 2 (4%) n (%)
  Dizziness: 10 (21%) n (%)
  Dry mouth: 2 (4%) n (%)
  Dysgeusia: 2 (4%) n (%)
  Ear and Labyrinth Disorders: 2 (4%) n (%)
  Euphoric mood: 3 (6%) n (%)
  Gastrointestinal Disorders: 9 (19%) n (%)
  Hallucination: 2 (4%) n (%)
  Headache: 4 (8%) n (%)
  Hypesthesia: 0 n (%)
  Infections and Infestations: 4 (8%) n (%)
  Insomnia: 3 (6%) n (%)
  Nausea: 1 (2%) n (%)
  Nervous System Disorders: 20 (42%) n (%)
  Paraesthesia: 2 (4%) n (%)
  Somnolence: 1 (2%) n (%)
  Tinnitus: 2 (4%) n (%)
  Urinary Tract Infection: 2 (4%) n (%)
  Vomiting: 0 n (%)
[2]; in vivo
  Discontinuation due to adverse events: 8 (17%) n (%)
  Dosage reduction due to TEAEs: 6%
  Electrocardiogram outlier analysis: no CVS safety signals
[3]; 10 μM
  inhibition at 10 µM: 53%
[3]; calculated
  IC50: 5.34 µM
[4]
  Alkaline elution assay result: negative
[5]
  Adverse Event: Abnormal dreams: 3 (20%)
  Adverse Event: Any: 11 (73%)
  Adverse Event: Dizziness: 5 (33%)
  Adverse Event: Euphoric mood: 2 (13%)
  Adverse Event: Feeling abnormal: 4 (27%)
  Adverse Event: Headache: 5(33%)
  Adverse Event: Nervous System: 10 (67%)
  Adverse Event: Paresthesias: 7 (47%)
  Adverse Event: Psychiatric: 5 (33%)
[6]
  IC50: > 25 µM
[7]
  IC50: 20 to 25 µM
